#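 Dose response: 5 concentrations. Exposure: 48 h. Format: 96-well plates. Endpoint: linear interpolation; highest concentration if not reached. GI50: concentration for 50% inhibition of growth. Definition used: TGI = concentration required for complete inhibition of growth.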
# Tests used:
# Experiment in all cases: NCI tumour cell line growth inhibition, 48 h
# 786-0 renal = tested on: 786-0 renal
# A498 renal = tested on: A498 renal
# A549 NSCLC = tested on: A549 NSCLC
# ACHN renal = tested on: ACHN renal
# BT-549 breast = tested on: BT-549 breast
# CAKI-1 renal = tested on: CAKI-1 renal
# CCRF-CEM leukemia = tested on: CCRF-CEM leukemia
# COLO 205 colon = tested on: COLO 205 colon
# DU-145 prostate = tested on: DU-145 prostate
# EKVX NSCLC = tested on: EKVX NSCLC
# HCC-2998 colon = tested on: HCC-2998 colon
# HCT-116 colon = tested on: HCT-116 colon
# HCT-15 colon = tested on: HCT-15 colon
# HL-60(TB) leukemia = tested on: HL-60(TB) leukemia
# HOP-62 NSCLC = tested on: HOP-62 NSCLC
# HOP-92 NSCLC = tested on: HOP-92 NSCLC
# HS 578T breast = tested on: HS 578T breast
# HT29 colon = tested on: HT29 colon
# IGROV1 ovarian = tested on: IGROV1 ovarian
# K-562 leukemia = tested on: K-562 leukemia
# KM12 colon = tested on: KM12 colon
# LOX IMVI melanoma = tested on: LOX IMVI melanoma
# M14 melanoma = tested on: M14 melanoma
# MALME-3M melanoma = tested on: MALME-3M melanoma
# MCF7 breast = tested on: MCF7 breast
# MDA-MB-231 breast = tested on: MDA-MB-231 breast
# MDA-MB-435 = tested on: MDA-MB-435
# MOLT-4 leukemia = tested on: MOLT-4 leukemia
# NCI-H226 lung = tested on: NCI-H226 lung
# NCI-H23 lung = tested on: NCI-H23 lung
# NCI-H460 lung = tested on: NCI-H460 lung
# NCI-H522 lung = tested on: NCI-H522 lung
# NCI/ADR-RES ovarian = tested on: NCI/ADR-RES ovarian
# OVCAR-3 ovarian = tested on: OVCAR-3 ovarian
# OVCAR-4 ovarian = tested on: OVCAR-4 ovarian
# OVCAR-5 ovarian = tested on: OVCAR-5 ovarian
# OVCAR-8 ovarian = tested on: OVCAR-8 ovarian
# PC-3 prostate = tested on: PC-3 prostate
# RPMI-8226 leukemia = tested on: RPMI-8226 leukemia
# RXF 393 renal = tested on: RXF 393 renal
# SF-268 CNS = tested on: SF-268 CNS
# SF-295 CNS = tested on: SF-295 CNS
# SF-539 CNS = tested on: SF-539 CNS
# SK-MEL-2 melanoma = tested on: SK-MEL-2 melanoma
# SK-MEL-28 melanoma = tested on: SK-MEL-28 melanoma
# SK-MEL-5 melanoma = tested on: SK-MEL-5 melanoma
# SK-OV-3 ovarian = tested on: SK-OV-3 ovarian
# SN12C renal = tested on: SN12C renal
# SNB-19 CNS = tested on: SNB-19 CNS
# SNB-75 CNS = tested on: SNB-75 CNS
# SR leukemia = tested on: SR leukemia
# SW-620 colon = tested on: SW-620 colon
# T-47D breast = tested on: T-47D breast
# TK-10 renal = tested on: TK-10 renal
# U251 CNS = tested on: U251 CNS
# UACC-257 melanoma = tested on: UACC-257 melanoma
# UACC-62 melanoma = tested on: UACC-62 melanoma
# UO-31 renal = tested on: UO-31 renal
smiles,measurement,setting,value
COc1ccc(Cl)cc1NC(=O)C(Br)C(Br)C(=O)O (stereo unspecified),GI50,786-0 renal,21.7 µM
same,TGI,786-0 renal,47.7 µM
same,GI50,A498 renal,27.5 µM
same,TGI,A498 renal,73.2 µM
same,GI50,A549 NSCLC,> 74.3 µM
same,TGI,A549 NSCLC,> 100 µM
same,GI50,ACHN renal,17.2 µM
same,TGI,ACHN renal,> 80.5 µM
same,GI50,BT-549 breast,3.23 µM
same,TGI,BT-549 breast,13 µM
same,GI50,CAKI-1 renal,16.7 µM
same,TGI,CAKI-1 renal,49.1 µM
same,GI50,CCRF-CEM leukemia,2.9 µM
same,TGI,CCRF-CEM leukemia,> 100 µM
same,GI50,COLO 205 colon,18.1 µM
same,TGI,COLO 205 colon,34 µM
same,GI50,DU-145 prostate,35.7 µM
same,TGI,DU-145 prostate,> 100 µM
same,GI50,EKVX NSCLC,21.9 µM
same,TGI,EKVX NSCLC,> 100 µM
same,GI50,HCC-2998 colon,8.25 µM
same,TGI,HCC-2998 colon,22.2 µM
same,GI50,HCT-116 colon,3.09 µM
same,TGI,HCT-116 colon,9.49 µM
same,GI50,HCT-15 colon,10.2 µM
same,TGI,HCT-15 colon,32.2 µM
same,GI50,HL-60(TB) leukemia,5.61 µM
same,TGI,HL-60(TB) leukemia,> 100 µM
same,GI50,HOP-62 NSCLC,4.79 µM
same,TGI,HOP-62 NSCLC,21.3 µM
same,GI50,HOP-92 NSCLC,12.8 µM
same,TGI,HOP-92 NSCLC,33.1 µM
same,GI50,HS 578T breast,43.9 µM
same,TGI,HS 578T breast,> 100 µM
same,GI50,HT29 colon,25.6 µM
same,TGI,HT29 colon,> 68.3 µM
same,GI50,IGROV1 ovarian,33.2 µM
same,TGI,IGROV1 ovarian,> 73.5 µM
same,GI50,K-562 leukemia,1.46 µM
same,TGI,K-562 leukemia,> 100 µM
same,GI50,KM12 colon,16.3 µM
same,TGI,KM12 colon,39.2 µM
same,GI50,LOX IMVI melanoma,1.02 µM
same,TGI,LOX IMVI melanoma,2.52 µM
same,GI50,M14 melanoma,14.9 µM
same,TGI,M14 melanoma,34.9 µM
same,GI50,MALME-3M melanoma,9.88 µM
same,TGI,MALME-3M melanoma,28.8 µM
same,GI50,MCF7 breast,3.23 µM
same,TGI,MCF7 breast,> 47.9 µM
same,GI50,MDA-MB-231 breast,9.23 µM
same,TGI,MDA-MB-231 breast,26 µM
same,GI50,MDA-MB-435,4.27 µM
same,TGI,MDA-MB-435,20.7 µM
same,GI50,MOLT-4 leukemia,6.78 µM
same,TGI,MOLT-4 leukemia,> 100 µM
same,GI50,NCI-H226 lung,13.7 µM
same,TGI,NCI-H226 lung,35.9 µM
same,GI50,NCI-H23 lung,11.9 µM
same,TGI,NCI-H23 lung,47.8 µM
same,GI50,NCI-H460 lung,38 µM
same,TGI,NCI-H460 lung,> 100 µM
same,GI50,NCI-H522 lung,1.91 µM
same,TGI,NCI-H522 lung,5.45 µM
same,GI50,NCI/ADR-RES ovarian,3.03 µM
same,TGI,NCI/ADR-RES ovarian,9.26 µM
same,GI50,OVCAR-3 ovarian,2.63 µM
same,TGI,OVCAR-3 ovarian,6.81 µM
same,GI50,OVCAR-4 ovarian,6.36 µM
same,TGI,OVCAR-4 ovarian,60.6 µM
same,GI50,OVCAR-5 ovarian,27.9 µM
same,TGI,OVCAR-5 ovarian,57 µM
same,GI50,OVCAR-8 ovarian,9.01 µM
same,TGI,OVCAR-8 ovarian,> 100 µM
same,GI50,PC-3 prostate,13.4 µM
same,TGI,PC-3 prostate,> 100 µM
same,GI50,RPMI-8226 leukemia,17.7 µM
same,TGI,RPMI-8226 leukemia,> 91.7 µM
same,GI50,RXF 393 renal,18.8 µM
same,TGI,RXF 393 renal,40.9 µM
same,GI50,SF-268 CNS,4.33 µM
same,TGI,SF-268 CNS,16.8 µM
same,GI50,SF-295 CNS,38.9 µM
same,TGI,SF-295 CNS,> 100 µM
same,GI50,SF-539 CNS,11.5 µM
same,TGI,SF-539 CNS,25.4 µM
same,GI50,SK-MEL-2 melanoma,7.54 µM
same,TGI,SK-MEL-2 melanoma,26.2 µM
same,GI50,SK-MEL-28 melanoma,7.69 µM
same,TGI,SK-MEL-28 melanoma,> 49.2 µM
same,GI50,SK-MEL-5 melanoma,2.39 µM
same,TGI,SK-MEL-5 melanoma,7.1 µM
same,GI50,SK-OV-3 ovarian,> 100 µM
same,TGI,SK-OV-3 ovarian,> 100 µM
same,GI50,SN12C renal,4.02 µM
same,TGI,SN12C renal,18.4 µM
same,GI50,SNB-19 CNS,27.9 µM
same,TGI,SNB-19 CNS,> 68.7 µM
same,GI50,SNB-75 CNS,26.6 µM
same,TGI,SNB-75 CNS,> 60.1 µM
same,GI50,SR leukemia,3.43 µM
same,TGI,SR leukemia,> 100 µM
same,GI50,SW-620 colon,5 µM
same,TGI,SW-620 colon,> 51.5 µM
same,GI50,T-47D breast,3.27 µM
same,TGI,T-47D breast,14.3 µM
same,GI50,TK-10 renal,6.59 µM
same,TGI,TK-10 renal,28 µM
same,GI50,U251 CNS,6.62 µM
same,TGI,U251 CNS,20.9 µM
same,GI50,UACC-257 melanoma,11 µM
same,TGI,UACC-257 melanoma,40.5 µM
same,GI50,UACC-62 melanoma,2.81 µM
same,TGI,UACC-62 melanoma,8.93 µM
same,GI50,UO-31 renal,19.2 µM
same,TGI,UO-31 renal,43.6 µM
